Data reported in US20180344690A1, “Methods and Formulation for Enhancing Response to Radiotherapy” (The Board of Trustees of the Leland Stanford Junior …, priority 2017, published 2018).
Where two headings read alike, the source gives them in different places.

Key:
AML = conditions: cited from earlier work
[1] = cited from earlier work
AML and MDS = conditions: cited from earlier work
CD34+ stem cells = conditions: cited from earlier work

c1cc(CN2CCCNCCNCCCNCC2)ccc1CN1CCCNCCNCCCNCC1 [Plerixafor]
Plerixafor unrelated deaths (AML; 4 patients, 240 μg/kg): 17% | complete response (CR) (AML; 14 of 21 patients with available data): 67% | DLTs (AML; 240, 320, 400, 480 μg/kg IV): No DLTs have been reported | patients with adverse events at least possibly related to Plerixafor (AML; Eighteen patients): 86% | patients with Grade 3 Plerixafor-related AEs (AML; Four patients): 19% | patients with Grade 4 related AEs (AML; One patient, 480 μg/kg cohort, thrombocytopenia and asymptomatic pulmonary embolism): 5% | time of peak PB AML blasts (AML; day 2, after administration): 2 to 4 h | increase in PB AML blasts, mean (AML; day 7): 1.51 fold | median time to neutrophil (0.5×109/L) recovery for responders (AML; in vivo): 19.5 (range 13-35) days | median time to platelet (100×109/L) recovery for responders (AML; in vivo): 21 (range 17-37) days | rise in PB AML blasts, mean increase (AML; infusion on day 2): 3.01 fold | severity of the majority of related adverse events (AML; mainly gastrointestinal disorders): grade ½ | circulating neutrophils (days 4, 8, 15, 22, 29 during infusion vs Screening (FIG. 8A)): increase of neutrophils | circulating monocytes (days 4, 8, 15, 22, 29 during infusion vs Screening (FIG. 8B)): increase in monocytes | Sinus tachycardia (all Grade 1) ([1]; 400 and 480 μg/kg doses): observed in most subjects | maximum tolerated dose ([1]; doses of up to 480 μg/kg SC and IV in healthy volunteers and cancer patients): has not been established | common adverse events ([1]; doses up to 480 μg/kg): diarrhea, injection site erythema, perioral numbness, sinus tachycardia, headache, nausea, abdominal distention and injection site pain | early death due to complications from intracranial hemorrhage (AML and MDS; 1 patient): 4% | treatment failure due to persistent disease (AML and MDS; 1 patient): 4% | Grade I-II GVHD (AML and MDS; 10/27 patients): 37% | treatment failure due to relapsed disease (AML and MDS; 10 patients): 37% | patients with common grade 3 adverse events (AML and MDS; 24/27, neutropenic fever, infections, or rash): 89% | Median progression-free survival (PFS) (AML and MDS; all patients, 95% CI: 18.1-33.9 wks): 26.6 wks | Grade III-IV GVHD (AML and MDS; human, in vivo, iv): no occurrences | toxicities ascribed to the G-CSF/Plerixafor component of the regimen (AML and MDS; human, in vivo): no toxicities ascribed | patients achieving a CR (AML and MDS; of the 19 patients with active disease at study entry): 18 | platelet recovery (plt >20 k/mm3), median (AML and MDS; range 9-74 d): 12 days | neutrophil recovery (ANC >500/mm3), median (AML and MDS; range 10-19): 12.5 days | Median progression-free survival (PFS) (AML and MDS; relapsed patients, 95% CI: 12.1-26.6 wks): 15.7 wks | proportion of patients with NHL able to mobilize minimum (2×10^6 cells/kg) and target (5×10^6 cells/kg) CD34+ cells (CD34+ stem cells; Plerixafor 240 μg/kg added to G-CSF): significantly increased the proportion of patients | apheresis days to reach both targets (CD34+ stem cells; Plerixafor added to G-CSF): significantly fewer apheresis days
